# Experimental data published in PMC11192711, “Automated radiosynthesis and preclinical evaluation of two new PSMA-617 derivatives radiolabelled via [^18F]AlF^2+ method” (EJNMMI Radiopharmacy and Chemistry, 2024).
# pIC50: −log10 of the molar value.
# Experiments:
# [1] = target: T1, PSMA (Homo sapiens, UniProt Q04609); assay: Competitive cell binding assay on fixed PC3-PIP cells against [^18F]F-PSMA-1007; settings: 0.75 nM [^18F]F-PSMA-1007, 60 min room temperature, read-out: inhibition potency toward PMSA (IC50)
# T1 construct: expressed in transfected cells; host or cells: PC3-PIP cells (PC3 stably expressing PSMA), fixed with 0.2% glutaraldehyde
# Description: Competitive cell binding experiments were conducted using PC3-PIP cells, [^18F]F-PSMA-1007, 300 nM PSMA-1007, and 8 different concentrations of PSMA-617-NODA (7) and PSMA-617-RESCA (9) (0, 0.01, 0.1, 1, 10, 100, 1000, 10,000 nM).
# For in vitro uptake, the PC3-PIP cell line, which is isogenic to PC3 and stably expresses PSMA(Ghosh et al. [2005]), and PC-3 cell line (PSMA negative) were used. 40.000 PC3-PIP and PC3 cells were seeded in 96-well cell culture plates and at the confluence were fixed adding 100 µl of 0.2% glutaraldehyde in PBS to medium. After 5 min incubation at 37 °C, the cells were washed six times with PBS. Then 200 µl of 0.1 M Glycine in PBS with 0.02% of sodium azide were added. After 5 min, the cells were washed 6 times with PBS and finally 250 µl of 1% BSA in PBS with 0.2% of sodium azide were added. The competitive cell binding assays were performed as follows: PC3-PIP fixed cells were incubated with [^18F]F-PSMA-1007 at a concentration of 0.75 nM in the presence of 8 different concentrations of PSMA-617-NODA (7) and PSMA-617-RESCA (9) (0, 0.01, 0.1, 1, 10, 100, 1000, 10,000 nM) and of 300 nM of PSMA-1007. […] The activity in the supernatants and cell pellets was determined using a gamma counter (1282 Compugamma CS, LKB Wallac, Finland). Cellular uptake was calculated as the percentage of radioactivity in cell pellets. […]
# [2] = test system: Gli36ΔEGFR tumours-bearing nude mice; assay: PET/CT in vivo biodistribution and tumour uptake in orthotopic Gli36ΔEGFR glioma model; settings: n = 3; for Bone (SUV mean) / Brain (SUV mean) / Colon (SUV mean) / Gall bladder (SUV mean) / Heart (SUV mean) / Kidney (SUV mean) / Liver (SUV mean) / Lung (SUV mean) / Muscle (SUV mean) / Salivary gland (SUV mean) / Small instestine (SUV mean): Gli36ΔEGFR female nude mice, i.v., PET/CT; for tumour-to-contralateral healthy brain ratio (tumour SUV max/contralateral SUV mean): Gli36ΔEGFR orthotopic glioma, nude mice
# Description: Subsequently, we evaluated the uptake of [^18F]F-PSMA-617-NODA ([^18F]1) and [^18F]F-PSMA-617-RESCA ([^18F]2) in an orthotopic glioma model obtained with Gli36ΔEGFR cells in female nude mice. Gli36ΔEGFR tumours-bearing nude mice (n = 3) were injected i.v. with either [^18F]F-PSMA-617-NODA or [^18F]F-PSMA-617-RESCA (~ 3.8 MBq/mouse, ~ 50 pmol for [^18F]1 and ~ 170 pmol [^18F]2). Radiotracer uptake was assessed after 10, 60 and 120 min post injection by whole-body PET/CT acquisitions. Also in nude female mice, a rapid clearance of [^18F]1 in all organs and the same kinetic observed in NSG male mice (Additional file 1: S71A and B) were confirmed. […] It is interesting to note that the uptake of [^18F]1 in kidneys decreased over time in both models (Additional file 1: S71A and B), while the uptake of [^18F]F-PSMA-1007 in NSG model and [^18F]2 in nude female mice model increased (Additional file 1: S71C and D).
# Total body biodistribution of [^18F]F-PSMA-1007, [^18F]F-PSMA-617-NODA and [^18F]F-PSMA-617-RESCA was evaluated in vivo using imaging PET/CT. [^18F]F-PSMA-617-NODA uptake was compared to that of the [^18F]F-PSMA-1007 in a PSMA positive prostate tumour xenograft model (LNCaP). [^18F]F-PSMA-617-NODA and [^18F]F-PSMA-617-RESCA uptake were also evaluated using an orthotopic glioma model (Gli36ΔEGFR).
# 5 × 10^5 Gli36ΔEGFR cells were injected in the right striatum of seven to eight weeks old female nude mice (Envigo RMS s.r.l., Italy) as previously described (Valtorta et al. [2021]). Ten days after mice underwent a T2-weighted Magnetic Resonance Imaging (MRI) using a 7 T small animal magnetic resonance scanner (Bruker, BioSpec 70/30 USR, Paravision 5.1, Germany) to confirm the growth of the tumour. Then, the same mice underwent in vivo biodistribution of [^18F]F-PSMA-617-NODA and [^18F]F-PSMA-617-RESCA, on successive but non-consecutive days, using PET/CT.
# Mice were injected into a tail vein with 3.8 ± 0.1 MBq of [^18F]F-PSMA-1007, 4.0 ± 0.2 MBq of [^18F]F-PSMA-617-NODA ([^18F]1) and 3.8 ± 0.1 MBq of [^18F]F-PSMA-617-RESCA ([^18F]2), respectively.
# Total body PET/CT acquisitions were performed using PET/CT tomographs dedicated to small animals, X-ß-CUBE (Molecubes, Gent, Belgium) after 10, 60 and 120 min from tracer injection. Each acquisition lasted 30 min and mice were maintained anesthetized (4% isoflurane in induction and 2% in maintenance in air) during acquisition.
# Image quantification analysis was performed with PMOD 4.105 software (Zurich, Switzerland). Volumes of interest (VOIs) were drawn on peripheral organs (tumour, thoracic muscle, heart, liver, kidney, salivary glands, lung, small intestine, colon, bone, gall bladder) and on the healthy brain using CT images. For the glioma model, PET/CT images were co-registered to MRI images and two different VOIs were defined: (1) a control VOI covering the healthy left striatum (volume 4 mm^3) was drawn on the axial MR images, adjusted on the other imaging planes and then copied on the PET images of each mouse; (2) a second glioma-covering VOI was drawn in the tumour-affected brain hemisphere and centered on mice lesions.
# For quantification, Standardized Uptake Value (SUV) was calculated according to the formula:
# SUV = organ concentration activity [MBq/g]/(injected activity [MBq]/animal weight [g]).
# The data were expressed as standardized-uptake-values (SUVmean and SUVmax) and as tumour-to-muscle (T/M) and tumour-to-blood (T/B) ratio in PCa model and as tumour-to-contralateral (T/Cl) ratio in glioma model.
# [3] = Stability in human plasma (HPLC, radio-TLC, pellet/supernatant activity); format: in vitro ADME; settings: ACN precipitation
# Description: Stability in plasma was evaluated mixing aliquots of [^18F]1 or [^18F]2 solutions (10 MBq for 2 h incubation and 20 MBq for 4 h incubation samples) with 200 µL of human serum. The mixtures were incubated at 37 °C. Aliquots were taken at 2 h and 4 h. Plasma pellet was precipitated with 200 µL acetonitrile and centrifuged (13,500 rpm, 10 min). The supernatant was removed, and the activity of the supernatant solution and pellet was measured using a dose calibrator (VIK-202 Comecer). The supernatant solution was analyzed injecting in RP-HPLC (diluted 1:5 in water) and Radio-TLC as above described.
# [4] = Stability in final solution (analytical HPLC and radio-TLC); format: physicochemical; settings: for release of [^18F]AlF^2+: in solution
# Description: Chemical and radiochemical stability in the final solution were tested by analytical HPLC and radio-TLC (Additional file 1: S37–S41); samples of the purified product were analyzed up to four hours after the end of radiosynthesis, at time intervals of two hours and storing the vial at room temperature.
# Stability in solution of [^18F]F-PSMA-617-NODA ([^18F]1) and [^18F]F-PSMA-617-RESCA ([^18F]2) were evaluated injecting in RP-HPLC (for experimental conditions, see sections “(((S)-5-((S)-2-((1R,4S)-4-((4-(4,7-bis(carboxymethyl)-1,4,7-triazonan-1-yl)butanamido)methyl)cyclohexane-1-carboxamido)-3-(naphthalen-2-yl)propanamido)-1-carboxypentyl)carbamoyl)-L-glutamic acid [^18F] aluminium fluoride ([^18F] 1)” and “(((S)-5-((S)-2-((1R,4S)-4-((2-(4-((((1R,2R)-2-(bis(carboxymethyl)amino)cyclohexyl)(carboxymethyl)amino)methyl)phenyl)acetamido)methyl)cyclohexane-1-carboxamido)-3-(naphthalen-2-yl)propanamido)-1-carboxypentyl)carbamoyl)-L-glutamic acid [18F] aluminium fluoride ([18F] 2)”) samples (20 µl) of respective radiopharmaceutical solutions at t = 0 (EOS), after 2 h and after 4 h. Moreover, ≈ 7.5 kBq of [^18F]1 or [^18F]2 solution were deposited on TLC sheet. The TLC was imaged using Cyclone® Plus Phosphor Scanner and software OptiQuant™.
# [5] = [18F]2, 2 h incubation in plasma, total activity incubated 3.91 MBq
# [6] = [18F]2, 4 h incubation in plasma, total activity incubated 4.62 MBq
# T1 sequence (Q04609 whole entry): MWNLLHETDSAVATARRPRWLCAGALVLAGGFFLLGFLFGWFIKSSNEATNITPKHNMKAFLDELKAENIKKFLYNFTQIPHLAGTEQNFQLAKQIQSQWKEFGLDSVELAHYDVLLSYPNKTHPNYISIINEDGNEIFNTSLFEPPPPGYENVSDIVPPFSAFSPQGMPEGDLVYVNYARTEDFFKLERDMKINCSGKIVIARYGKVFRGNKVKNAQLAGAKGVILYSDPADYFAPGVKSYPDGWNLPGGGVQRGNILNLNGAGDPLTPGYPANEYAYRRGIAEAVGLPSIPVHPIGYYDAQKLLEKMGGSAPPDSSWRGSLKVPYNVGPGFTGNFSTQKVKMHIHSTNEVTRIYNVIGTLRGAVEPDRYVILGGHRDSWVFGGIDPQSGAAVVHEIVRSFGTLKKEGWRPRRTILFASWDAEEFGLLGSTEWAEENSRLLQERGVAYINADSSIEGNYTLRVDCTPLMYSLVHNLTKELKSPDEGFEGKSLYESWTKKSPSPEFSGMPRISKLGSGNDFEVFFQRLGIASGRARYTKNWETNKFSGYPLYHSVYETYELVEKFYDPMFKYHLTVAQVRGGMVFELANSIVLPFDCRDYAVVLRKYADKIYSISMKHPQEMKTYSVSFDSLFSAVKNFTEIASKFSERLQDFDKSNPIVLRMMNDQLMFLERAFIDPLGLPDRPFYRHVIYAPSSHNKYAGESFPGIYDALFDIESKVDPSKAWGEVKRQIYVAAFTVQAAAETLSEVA
structure (smiles),measurement,setting,value
"O=C(O)CC[C@H](NC(=O)N[C@@H](CCCCNC(=O)[C@H](Cc1ccc2ccccc2c1)NC(=O)[C@H]1CC[C@H](CNC(=O)CCCN2CCN(CC(=O)O)CCN(CC(=O)O)CC2)CC1)C(=O)O)C(=O)O [PSMA-617-NODA, (((S)-5-((S)-2-((1R,4S)-4-((4-(4,7-bis(carboxymethyl)-1,4,7-triazonan-1-yl)butanamido)methyl)cyclohexane-1-carboxamido)-3-(naphthalen-2-yl)propanamido)-1-carboxypentyl)carbamoyl)-L-glutamic acid]",pIC50,[1],7.19
"O=C(O)CCC(NC(=O)NC(CCCCNC(=O)C(Cc1ccc2ccccc2c1)NC(=O)C1CCC(CNC(=O)Cc2ccc(CN(CC(=O)O)C3CCCCC3N(CC(=O)O)CC(=O)O)cc2)CC1)C(=O)O)C(=O)O [PSMA-617-RESCA, (((S)-5-((S)-2-((1R,4S)-4-((2-(4-((((1R,2R)-2-(bis(carboxymethyl)amino)cyclohexyl)(carboxymethyl)amino)methyl)phenyl)acetamido)methyl)cyclohexane-1-carboxamido)-3-(naphthalen-2-yl)propanamido)-1-carboxypentyl)carbamoyl)-L-glutamic acid]",pIC50,[1],7.70
"O=C(O)CCC(NC(=O)NC(CCCCNC(=O)C(Cc1ccc2ccccc2c1)NC(=O)C1CCC(CNC(=O)Cc2ccc(CN(CC(=O)O)C3CCCCC3N(CC(=O)O)CC(=O)O)cc2)CC1)C(=O)O)C(=O)O.[18F][Al] [[^18F]F-PSMA-617-RESCA, (((S)-5-((S)-2-((1R,4S)-4-((2-(4-((((1R,2R)-2-(bis(carboxymethyl)amino)cyclohexyl)(carboxymethyl)amino)methyl)phenyl)acetamido)methyl)cyclohexane-1-carboxamido)-3-(naphthalen-2-yl)propanamido)-1-carboxypentyl)carbamoyl)-L-glutamic acid [^18F] aluminium fluoride]",Bone (SUV mean),[2]; 10 min p.i.,0.21 ± 0.03
same,Brain (SUV mean),[2]; 10 min p.i.,0.09 ± 0.02
same,Colon (SUV mean),[2]; 10 min p.i.,0.29 ± 0.23
same,Gall bladder (SUV mean),[2]; 10 min p.i.,3.28 ± 3.18
same,Heart (SUV mean),[2]; 10 min p.i.,0.35 ± 0.05
same,Kidney (SUV mean),[2]; 10 min p.i.,6.92 ± 1.16
same,Liver (SUV mean),[2]; 10 min p.i.,0.98 ± 0.15
same,Lung (SUV mean),[2]; 10 min p.i.,0.31 ± 0.01
same,Muscle (SUV mean),[2]; 10 min p.i.,0.19 ± 0.05
same,Salivary gland (SUV mean),[2]; 10 min p.i.,0.54 ± 0.14
same,Small instestine (SUV mean),[2]; 10 min p.i.,1.99 ± 1.44
same,Bone (SUV mean),[2]; 60 min p.i.,0.20 ± 0.07
same,Brain (SUV mean),[2]; 60 min p.i.,0.07 ± 0.02
same,Colon (SUV mean),[2]; 60 min p.i.,0.78 ± 1.05
same,Gall bladder (SUV mean),[2]; 60 min p.i.,5.22 ± 4.23
same,Heart (SUV mean),[2]; 60 min p.i.,0.17 ± 0.03
same,Kidney (SUV mean),[2]; 60 min p.i.,10.21 ± 0.80
same,Liver (SUV mean),[2]; 60 min p.i.,0.65 ± 0.22
same,Lung (SUV mean),[2]; 60 min p.i.,0.19 ± 0.04
same,Muscle (SUV mean),[2]; 60 min p.i.,0.12 ± 0.02
same,Salivary gland (SUV mean),[2]; 60 min p.i.,0.45 ± 0.10
same,Small instestine (SUV mean),[2]; 60 min p.i.,3.07 ± 1.02
same,Bone (SUV mean),[2]; 120 min p.i.,0.15 ± 0.11
same,Brain (SUV mean),[2]; 120 min p.i.,0.07 ± 0.01
same,Colon (SUV mean),[2]; 120 min p.i.,3.87 ± 5.37
same,Gall bladder (SUV mean),[2]; 120 min p.i.,5.07 ± 4.26
same,Heart (SUV mean),[2]; 120 min p.i.,0.11 ± 0.03
same,Kidney (SUV mean),[2]; 120 min p.i.,10.64 ± 1.25
same,Liver (SUV mean),[2]; 120 min p.i.,0.30 ± 0.11
same,Lung (SUV mean),[2]; 120 min p.i.,0.12 ± 0.03
same,Muscle (SUV mean),[2]; 120 min p.i.,0.11 ± 0.04
same,Salivary gland (SUV mean),[2]; 120 min p.i.,0.28 ± 0.10
same,Small instestine (SUV mean),[2]; 120 min p.i.,5.79 ± 2.07
same,tumour-to-contralateral healthy brain ratio (tumour SUV max/contralateral SUV mean),[2]; 60 min p.i.,2.93 ± 1.23
same,tumour-to-contralateral healthy brain ratio (tumour SUV max/contralateral SUV mean),[2]; 120 min p.i.,2.93 ± 0.08
same,Pellet activity,[3]; [5],0.45 MBq
same,Supernatant activity,[3]; [5],3.46 MBq
same,Pellet activity,[3]; [6],0.57 MBq
same,Supernatant activity,[3]; [6],4.05 MBq
same,amount of free [^18F]AlF^2+ in solution,"[4]; approximately 85 min after EOS (time of injection), supposed",< 5%
same,release of [^18F]AlF^2+,[4]; after 2 h of incubation at room temperature,4.9%
same,release of [^18F]AlF^2+,[4]; at EOS,1.2%
same,release of [^18F]AlF^2+,"[4]; room temperature, after 4 h",10%
